Source: DBAASP
In brackets after ≈: the same amount, converted by molar mass. Several values for one entry are separate records, joined by “and”; a condition that tells them apart may be missing. Equal values may be shown once. Values belong to the compound of their own block, whether it stands above or below them.

Assays:
Assay in all cases: ≥ marks a high value that may be exact or a test limit, other limits are often not marked, values filed in µg/mL are converted to µM
[1] = test system: Pseudomonas aeruginosa 3552
[2] = test system: Pseudomonas aeruginosa CCARM 2095
[3] = test system: Enterococcus faecium CCARM 5028
[4] = test system: Pseudomonas aeruginosa CCARM 2092
[5] = test system: Bacillus subtilis KCCM 11495
[6] = test system: Enterococcus faecium CCARM 5029
[7] = test system: Escherichia coli KCCM 11569
[8] = test system: Staphylococcus aureus CCARM 3572
[9] = test system: Mannheimia haemolytica Serovar 6
[10] = test system: Mannheimia haemolytica Serovar 1
[11] = test system: Mannheimia haemolytica Serovar 2
Bibersteinia trehalosi = test system: Bibersteinia trehalosi
Aspergillus fumigatus = test system: Aspergillus fumigatus
Klebsiella pneumoniae = test system: Klebsiella pneumoniae
Pasteurella multocida = test system: Pasteurella multocida
[12] = test system: Salmonella enterica subsp. arizonae
[13] = test system: Pseudomonas aeruginosa PAO1
Staphylococcus aureus = test system: Staphylococcus aureus
[14] = test system: Corynebacterium pseudotuberculosis ATCC 19410
[15] = test system: Pseudomonas aeruginosa ATCC 14502
[16] = test system: Staphylococcus aureus ATCC 6538
Escherichia coli SBS 363 = test system: Escherichia coli SBS 363
[17] = test system: Micrococcus luteus ATCC 49732
[18] = test system: Escherichia coli ATCC 11775
[19] = test system: Staphylococcus aureus ATCC 12600
[20] = test system: Klebsiella pneumoniae ATCC 10031
[21] = test system: Proteus mirabilis ATCC 25933
[22] = test system: Pseudomonas aeruginosa ATCC 9027
[23] = test system: Micrococcus luteus ATCC 4698
[24] = test system: Staphylococcus aureus KCTC 3881
[25] = test system: Candida albicans ATCC 36232
[26] = test system: Shigella dysenteriae ATCC 9752
[27] = test system: Bacillus subtilis ATCC 6633
[28] = test system: Staphylococcus epidermidis ATCC 12228
[29] = test system: Escherichia coli KCTC 2433
[30] = test system: Pseudomonas aeruginosa K799
[31] = test system: Pseudomonas aeruginosa Z61
[32] = test system: Escherichia coli CGSC 4908
[33] = test system: Salmonella enterica serovar typhimurium MS7953s
[34] = test system: Salmonella enterica subsp. enterica serovar Typhimurium ATCC 14028s
Escherichia coli DC2 = test system: Escherichia coli DC2
[35] = test system: Staphylococcus aureus C623
[36] = test system: Aeromonas salmonicida A449
Escherichia coli UB1005 = test system: Escherichia coli UB1005
[37] = test system: Staphylococcus epidermidis C621
[38] = test system: Aeromonas salmonicida 97-4
Candida albicans C627 = test system: Candida albicans C627
[39] = test system: Aeromonas salmonicida 99-1

SMILES: CC[C@H](C)[C@H](NC(=O)[C@H](CCCN=C(N)N)NC(=O)[C@H](CCCN=C(N)N)NC(=O)[C@@H](NC(=O)[C@@H](N)CC(N)=O)[C@@H](C)CC)C(=O)N[C@H](C(=O)N[C@@H](CCCN=C(N)N)C(=O)N[C@@H](CCCCN)C(=O)N[C@H](C(=O)N[C@H](C(=O)N[C@@H](Cc1cnc[nH]1)C(=O)N[C@H](C(=O)N[C@H](C(=O)N[C@@H](CCCCN)C(=O)N[C@@H](CCCCN)C(=O)N[C@@H](Cc1ccc(O)cc1)C(=O)O)[C@@H](C)CC)[C@@H](C)CC)[C@@H](C)CC)[C@@H](C)CC)[C@@H](C)CC [NIRRIIRKIIHIIKKY]
MIC [9]: 1.59 µM (≈ 3.3 µg/mL)
MIC [10]: 0.722 µM (≈ 1.5 µg/mL)
MIC [11]: 1.59 µM (≈ 3.3 µg/mL)
MIC (Bibersteinia trehalosi): 3.61 µM (≈ 7.5 µg/mL)
MIC (Aspergillus fumigatus): 4 µM (≈ 8.3 µg/mL)
MIC (Klebsiella pneumoniae): 0.818 µM (≈ 1.7 µg/mL)
MIC (Pasteurella multocida): 0.626 µM (≈ 1.3 µg/mL)
MIC [12]: 2.41 µM (≈ 5 µg/mL)
MIC [13]: 2.02 µM (≈ 4.2 µg/mL)
MIC (Staphylococcus aureus): 4.81 µM (≈ 10 µg/mL)
MIC [14]: 9.63 µM (≈ 20 µg/mL)

SMILES: CC[C@H](C)[C@H](NC(=O)[C@H](C)NC(=O)[C@H](CO)NC(=O)[C@@H](NC(=O)[C@H](C)NC(=O)[C@H](CC(N)=O)NC(=O)[C@@H](NC(=O)[C@H](C)NC(=O)[C@H](Cc1cnc[nH]1)NC(=O)[C@@H]1CCCN1C(=O)[C@@H](NC(=O)[C@H](CC(C)C)NC(=O)[C@H](CO)NC(=O)[C@H](CC(C)C)NC(=O)[C@@H](N)Cc1ccccc1)[C@@H](C)CC)[C@@H](C)CC)C(C)C)C(=O)N[C@@H](C)C(=O)N[C@@H](CCCCN)C(=O)N[C@@H](Cc1cnc[nH]1)C(=O)N[C@@H](Cc1ccccc1)C(N)=O [FLSLIPHAINAVSAIAKHF]
MIC [15]: 6 µM (≈ 12.3 µg/mL)
MIC [16]: 6 µM (≈ 12.3 µg/mL)
MIC (Escherichia coli SBS 363): 6 µM (≈ 12.3 µg/mL)
MIC [17]: 1.8 µM (≈ 3.69 µg/mL)
MIC [18]: 7.2 µM (≈ 14.7 µg/mL)
MIC [19]: 3.6 µM (≈ 7.37 µg/mL)

SMILES: CC(C)C[C@H](NC(=O)[C@H](CC(C)C)NC(=O)[C@H](CC(C)C)NC(=O)[C@@H]1CCCN1C(=O)[C@H](CC(C)C)NC(=O)[C@@H](N)Cc1ccccc1)C(=O)N[C@@H](C)C(=O)NCC(=O)N[C@@H](CC(C)C)C(=O)N1CCC[C@H]1C(=O)N[C@@H](CC(C)C)C(=O)N[C@@H](CCCCN)C(=O)N[C@@H](CC(C)C)C(=O)N[C@H]1CSSC[C@@H](C(=O)O)NC(=O)[C@H](CCCCN)NC(=O)[C@H](CCCCN)NC(=O)[C@H](Cc2ccccc2)NC(=O)[C@H](CC(C)C)NC(=O)[C@H](Cc2ccccc2)NC1=O [FLPLLLAGLPLKLCFLFKKC]
MIC [20]: ≥ 43.9 µM
MIC [21]: ≥ 43.9 µM
MIC [22]: > 43.9 µM
MIC [23]: 2.74 µM (≈ 6.24 µg/mL)
MIC [24]: 5.49 µM (≈ 12.5 µg/mL)
MIC [25]: 21.9 µM (≈ 50 µg/mL)
MIC [26]: ≥ 43.9 µM
MIC [27]: 21.9 µM (≈ 50 µg/mL)
MIC [28]: 21.9 µM (≈ 50 µg/mL)
MIC [29]: ≥ 43.9 µM

The next lines start with the values.

MIC [1]: 8 µM and 4 µM
SMILES: CC[C@H](C)[C@H](NC(=O)CNC(=O)[C@@H](NC(=O)[C@H](Cc1cnc[nH]1)NC(=O)[C@H](CCCCN)NC(=O)[C@H](CCCCN)NC(=O)[C@H](CC(C)C)NC(=O)[C@H](CCCCN)NC(=O)[C@H](Cc1c[nH]c2ccccc12)NC(=O)[C@@H](N)CCCCN)[C@@H](C)CC)C(=O)NCC(=O)N[C@@H](CCCCN)C(=O)N[C@@H](Cc1cnc[nH]1)C(=O)N[C@@H](Cc1ccccc1)C(=O)N[C@@H](CC(C)C)C(=O)N[C@@H](CO)C(=O)N[C@@H](C)C(=O)N[C@@H](CCCCN)C(=O)N[C@@H](CCCCN)C(=O)N[C@@H](Cc1ccccc1)C(N)=O [KWKLKKHIGIGKHFLSAKKF]

MIC [2]: 2.77 µM (≈ 5.65 µg/mL)
MIC [3]: 0.693 µM and 1.39 µM
MIC [4]: 1.39 µM (≈ 2.83 µg/mL)
MIC [5]: 0.49 µM (≈ 1 µg/mL)
MIC [6]: 0.693 µM and 1.39 µM
MIC [7]: 1.39 µM (≈ 2.83 µg/mL)
MIC [8]: 5.54 µM (≈ 11.3 µg/mL)
SMILES: CC(C)C[C@H](NC(=O)CNC(=O)[C@H](CCCCN)NC(=O)[C@H](CCCCN)NC(=O)[C@H](CC(C)C)NC(=O)[C@H](CC(C)C)NC(=O)[C@H](C)NC(=O)[C@H](CC(N)=O)NC(=O)[C@H](CC(C)C)NC(=O)[C@H](Cc1c[nH]c2ccccc12)NC(=O)[C@@H](N)CCCCN)C(=O)N[C@@H](CC(N)=O)C(=O)N[C@@H](CS)C(=O)N[C@@H](C)C(=O)N[C@@H](CCCCN)C(=O)NCC(=O)N[C@H](C(=O)N[C@@H](CC(C)C)C(=O)N[C@@H](C)C(N)=O)C(C)C [KWLNALLKKGLNCAKGVLA]

MIC [30]: 29.3 µM (≈ 63.9 µg/mL)
MIC [31]: 29.3 µM (≈ 63.9 µg/mL)
MIC [32]: 29.3 µM (≈ 63.9 µg/mL)
MIC [33]: 29.3 µM (≈ 63.9 µg/mL)
MIC [34]: 29.3 µM (≈ 63.9 µg/mL)
MIC (Escherichia coli DC2): 29.3 µM (≈ 63.9 µg/mL)
MIC [35]: 29.3 µM (≈ 63.9 µg/mL)
MIC [36]: 29.3 µM (≈ 63.9 µg/mL)
MIC (Escherichia coli UB1005): 29.3 µM (≈ 63.9 µg/mL)
MIC [37]: 29.3 µM (≈ 63.9 µg/mL)
MIC [38]: 29.3 µM (≈ 63.9 µg/mL)
MIC (Candida albicans C627): 29.3 µM (≈ 63.9 µg/mL)
MIC [39]: 29.3 µM (≈ 63.9 µg/mL)
SMILES: CC[C@H](C)[C@H](NC(=O)[C@H](CO)NC(=O)[C@H](CCCCN)NC(=O)[C@@H](NC(=O)[C@@H](NC(=O)[C@H](CC(=O)O)NC(=O)[C@H](CCC(=O)O)NC(=O)[C@@H](NC(=O)[C@H](CO)NC(=O)[C@@H](N)CCCNC(=N)N)[C@@H](C)O)[C@@H](C)CC)[C@@H](C)CC)C(=O)N[C@@H](CO)C(=O)NCC(=O)NCC(=O)NCC(=O)N[C@@H](Cc1ccccc1)C(=O)N[C@@H](CC(C)C)C(=O)N[C@@H](CC(N)=O)C(=O)N[C@@H](C)C(=O)N[C@@H](CCSC)C(=O)N[C@@H](CC(N)=O)C(=O)N[C@@H](C)C(C)=O [RSTEDIIKSISGGGFLNAMNA]
